Test results from patent US6479435B1, “Diaryl ethers and processes for their preparation and herbicidal and desiccant compositions containing them” (ISK Americas Incorporated, priority 1997, dated 2002).

Key:
Type in all cases: in vivo
[1] = system: common ragweed (Ambrosia artemisiifolia L., AMBEL); assay: Post-emerge greenhouse herbicide test, phytotoxicity rating; conditions: 14 days after application
Summary of the method: (§1)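 Compounds in acetone with 0.25% v/v non-ionic surfactant were track-sprayed at 187 l/ha over plants at the 2-3 leaf stage, at 63 to 1000 g ai/ha. Pots were bottom-watered. Injury was scored visually 14 days later on a 0-100 scale, where 0 is no damage and 100 is complete plant death.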

[2] = system: soybean (Glycine max L., var. Pella 86, SOY); assay: Pre-emerge greenhouse test, crop damage rating; conditions: 14 days after application, rating scale 0-100
Summary of the method: (§2)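 Seeds sown in sandy loam mix one day before track-sprayer application of compounds in acetone at 125–1000 g ai/ha (187 l/ha), then surface-watered to incorporate and bottom-watered. Visual rating 14 days after application on a 0–100 scale (0 = no damage, 100 = all plants dead).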

[3] = system: upland rice (Oryza sp., var.Tebonnet, RICE); assay: Post-emerge greenhouse test, crop damage rating; conditions: 14 days after application
Summary of the method: as §1

[4] = system: field corn (Zea mays L., var. Dekalb 535, CORN); assay: Post-emerge greenhouse test, crop damage rating; conditions: 14 days after application
Summary of the method: as §1

[5] = system: soybean (Glycine max L., var. Pella 86, SOY); assay: Post-emerge greenhouse test, crop damage rating; conditions: 14 days after application
Summary of the method: as §1

[6] = system: ivyleaf morningglory (Ipomoea hederacea, IPOHE); assay: Pre-emerge greenhouse herbicide test, phytotoxicity rating; conditions: 14 days after application, rating scale 0-100
Summary of the method: as §2

[7] = system: large crabgrass (Digitaria sanguinalis, DIGSA); assay: as above; conditions: 14 days after application, rating scale 0-100
Summary of the method: as §2

[8] = system: Johnsongrass (Sorghum halepense, SORHA); assay: as above; conditions: 14 days after application, rating scale 0-100
Summary of the method: as §2

[9] = system: sicklepod (Cassia obtusifolia, CASOB); assay: as above; conditions: 14 days after application, rating scale 0-100
Summary of the method: as §2

[10] = system: common ragweed (Ambrosia artemisiifolia L., AMBEL); assay: as above; conditions: 14 days after application, rating scale 0-100
Summary of the method: as §2

[11] = system: green foxtail (Setaria viridis, SETVI); assay: as above; conditions: 14 days after application, rating scale 0-100
Summary of the method: as §2

[12] = system: barnyardgrass (Echinochloa crusgalli, ECHCG); assay: as above; conditions: 14 days after application, rating scale 0-100
Summary of the method: as §2

[13] = system: redroot pigweed (Amaranthus retroflexus, AMARE); assay: as above; conditions: 14 days after application, rating scale 0-100
Summary of the method: as §2

[14] = system: lambsquarters (Chenopodium album, CHEAL); assay: as above; conditions: 14 days after application, rating scale 0-100
Summary of the method: as §2

[15] = system: velvetleaf (Abutilon theophrasti, ABUTH); assay: as above; conditions: 14 days after application, rating scale 0-100
Summary of the method: as §2

[16] = system: ivyleaf morningglory (Ipomoea hederacea, IPOHE); assay: Post-emerge greenhouse herbicide test, phytotoxicity rating; conditions: 14 days after application
Summary of the method: as §1

[17] = system: large crabgrass (Digitaria sanguinalis, DIGSA); assay: as above; conditions: 14 days after application
Summary of the method: as §1

[18] = system: Johnsongrass (Sorghum halepense, SORHA); assay: as above; conditions: 14 days after application
Summary of the method: as §1

[19] = system: sicklepod (Cassia obtusifolia, CASOB); assay: as above; conditions: 14 days after application
Summary of the method: as §1

[20] = system: green foxtail (Setaria viridis, SETVI); assay: as above; conditions: 14 days after application
Summary of the method: as §1

[21] = system: barnyardgrass (Echinochloa crusgalli, ECHCG); assay: as above; conditions: 14 days after application
Summary of the method: as §1

[22] = system: redroot pigweed (Amaranthus retroflexus, AMARE); assay: as above; conditions: 14 days after application
Summary of the method: as §1

[23] = system: lambsquarters (Chenopodium album, CHEAL); assay: as above; conditions: 14 days after application
Summary of the method: as §1

[24] = system: velvetleaf (Abutilon theophrasti, ABUTH); assay: as above; conditions: 14 days after application
Summary of the method: as §1

[25] = system: upland rice (Oryza sp., var.Tebonnet, RICE); assay: Pre-emerge greenhouse test, crop damage rating; conditions: 14 days after application, rating scale 0-100
Summary of the method: as §2

[26] = system: field corn (Zea mays L., var. Dekalb 535, CORN); assay: Pre-emerge greenhouse test, crop damage rating; conditions: 14 days after application, rating scale 0-100
Summary of the method: as §2

## O=c1n(-c2cc(Oc3ccc([N+](=O)[O-])cc3C(F)(F)F)c(Cl)cc2F)c(=S)n2n1CCCC2 [Compound 8-14]
[1]; 63 g al/ha
  AMBEL phytotoxicity rating (0-100): 40
[1]; 500 g al/ha
  AMBEL phytotoxicity rating (0-100): 60
[2]; 125 g ai/ha
  crop damage rating SOY: 0
[2]; 500 g ai/ha
  crop damage rating SOY: 0
[3]; 63 g al/ha
  RICE crop damage rating (0-100): 0
[3]; 500 g al/ha
  RICE crop damage rating (0-100): 0
[4]; 63 g al/ha
  CORN crop damage rating (0-100): 5
[4]; 500 g al/ha
  CORN crop damage rating (0-100): 5
[5]; 63 g al/ha
  SOY crop damage rating (0-100): 30
[5]; 500 g al/ha
  SOY crop damage rating (0-100): 30
[6]; 125 g ai/ha
  phytotoxicity rating IPOHE: 0
[6]; 500 g ai/ha
  phytotoxicity rating IPOHE: 0
[7]; 125 g ai/ha
  phytotoxicity rating DIGSA: 0
[7]; 500 g ai/ha
  phytotoxicity rating DIGSA: 20
[8]; 125 g ai/ha
  phytotoxicity rating SORHA: 0
[8]; 500 g ai/ha
  phytotoxicity rating SORHA: 0
[9]; 125 g ai/ha
  phytotoxicity rating CASOB: 0
[9]; 500 g ai/ha
  phytotoxicity rating CASOB: 0
[10]; 125 g ai/ha
  phytotoxicity rating AMBEL: 0
[10]; 500 g ai/ha
  phytotoxicity rating AMBEL: 30
[11]; 125 g ai/ha
  phytotoxicity rating SETVI: 0
[11]; 500 g ai/ha
  phytotoxicity rating SETVI: 50
[12]; 125 g ai/ha
  phytotoxicity rating ECHCG: 0
[12]; 500 g ai/ha
  phytotoxicity rating ECHCG: 0
[13]; 125 g ai/ha
  phytotoxicity rating AMARE: 70
[13]; 500 g ai/ha
  phytotoxicity rating AMARE: 95
[14]; 125 g ai/ha
  phytotoxicity rating CHEAL: 80
[14]; 500 g ai/ha
  phytotoxicity rating CHEAL: 100
[15]; 125 g ai/ha
  phytotoxicity rating ABUTH: 30
[15]; 500 g ai/ha
  phytotoxicity rating ABUTH: 60
[16]; 63 g al/ha
  IPOHE phytotoxicity rating (0-100): 80
[16]; 500 g al/ha
  IPOHE phytotoxicity rating (0-100): 85
[17]; 63 g al/ha
  DIGSA phytotoxicity rating (0-100): 0
[17]; 500 g al/ha
  DIGSA phytotoxicity rating (0-100): 0
[18]; 63 g al/ha
  SORHA phytotoxicity rating (0-100): 0
[18]; 500 g al/ha
  SORHA phytotoxicity rating (0-100): 0
[19]; 63 g al/ha
  CASOB phytotoxicity rating (0-100): 40
[19]; 500 g al/ha
  CASOB phytotoxicity rating (0-100): 30
[20]; 63 g al/ha
  SETVI phytotoxicity rating (0-100): 30
[20]; 500 g al/ha
  SETVI phytotoxicity rating (0-100): 20
[21]; 63 g al/ha
  ECHCG phytotoxicity rating (0-100): 0
[21]; 500 g al/ha
  ECHCG phytotoxicity rating (0-100): 0
[22]; 63 g al/ha
  AMARE phytotoxicity rating (0-100): 70
[22]; 500 g al/ha
  AMARE phytotoxicity rating (0-100): 90
[23]; 63 g al/ha
  CHEAL phytotoxicity rating (0-100): 80
[23]; 500 g al/ha
  CHEAL phytotoxicity rating (0-100): 90
[24]; 63 g al/ha
  ABUTH phytotoxicity rating (0-100): 95
[24]; 500 g al/ha
  ABUTH phytotoxicity rating (0-100): 95
[25]; 125 g ai/ha
  crop damage rating RICE: 0
[25]; 500 g ai/ha
  crop damage rating RICE: 0
[26]; 125 g ai/ha
  crop damage rating CORN: 0
[26]; 500 g ai/ha
  crop damage rating CORN: 0

## Nc1ccc(Oc2cc(-n3c(=O)n4n(c3=S)CCCC4)c(F)cc2Cl)c(C(F)(F)F)c1 [Compound 8-15]
[1]; 63 g al/ha
  AMBEL phytotoxicity rating (0-100): 30
[1]; 500 g al/ha
  AMBEL phytotoxicity rating (0-100): 70
[2]; 125 g ai/ha
  crop damage rating SOY: 0
[2]; 500 g ai/ha
  crop damage rating SOY: 0
[3]; 63 g al/ha
  RICE crop damage rating (0-100): 0
[3]; 500 g al/ha
  RICE crop damage rating (0-100): 0
[4]; 63 g al/ha
  CORN crop damage rating (0-100): 0
[4]; 500 g al/ha
  CORN crop damage rating (0-100): 0
[5]; 63 g al/ha
  SOY crop damage rating (0-100): 20
[5]; 500 g al/ha
  SOY crop damage rating (0-100): 50
[6]; 125 g ai/ha
  phytotoxicity rating IPOHE: 0
[6]; 500 g ai/ha
  phytotoxicity rating IPOHE: 0
[7]; 125 g ai/ha
  phytotoxicity rating DIGSA: 0
[7]; 500 g ai/ha
  phytotoxicity rating DIGSA: 0
[8]; 125 g ai/ha
  phytotoxicity rating SORHA: 0
[8]; 500 g ai/ha
  phytotoxicity rating SORHA: 0
[9]; 125 g ai/ha
  phytotoxicity rating CASOB: 0
[9]; 500 g ai/ha
  phytotoxicity rating CASOB: 0
[10]; 125 g ai/ha
  phytotoxicity rating AMBEL: 0
[10]; 500 g ai/ha
  phytotoxicity rating AMBEL: 0
[11]; 125 g ai/ha
  phytotoxicity rating SETVI: 0
[11]; 500 g ai/ha
  phytotoxicity rating SETVI: 0
[12]; 125 g ai/ha
  phytotoxicity rating ECHCG: 0
[12]; 500 g ai/ha
  phytotoxicity rating ECHCG: 0
[13]; 125 g ai/ha
  phytotoxicity rating AMARE: 0
[13]; 500 g ai/ha
  phytotoxicity rating AMARE: 40
[14]; 125 g ai/ha
  phytotoxicity rating CHEAL: 0
[14]; 500 g ai/ha
  phytotoxicity rating CHEAL: 100
[15]; 125 g ai/ha
  phytotoxicity rating ABUTH: 0
[15]; 500 g ai/ha
  phytotoxicity rating ABUTH: 50
[16]; 63 g al/ha
  IPOHE phytotoxicity rating (0-100): 40
[16]; 500 g al/ha
  IPOHE phytotoxicity rating (0-100): 80
[17]; 63 g al/ha
  DIGSA phytotoxicity rating (0-100): 0
[17]; 500 g al/ha
  DIGSA phytotoxicity rating (0-100): 0
[18]; 63 g al/ha
  SORHA phytotoxicity rating (0-100): 0
[18]; 500 g al/ha
  SORHA phytotoxicity rating (0-100): 0
[19]; 63 g al/ha
  CASOB phytotoxicity rating (0-100): 0
[19]; 500 g al/ha
  CASOB phytotoxicity rating (0-100): 50
[20]; 63 g al/ha
  SETVI phytotoxicity rating (0-100): 0
[20]; 500 g al/ha
  SETVI phytotoxicity rating (0-100): 0
[21]; 63 g al/ha
  ECHCG phytotoxicity rating (0-100): 0
[21]; 500 g al/ha
  ECHCG phytotoxicity rating (0-100): 0
[22]; 63 g al/ha
  AMARE phytotoxicity rating (0-100): 40
[22]; 500 g al/ha
  AMARE phytotoxicity rating (0-100): 70
[23]; 63 g al/ha
  CHEAL phytotoxicity rating (0-100): 70
[23]; 500 g al/ha
  CHEAL phytotoxicity rating (0-100): 90
[24]; 63 g al/ha
  ABUTH phytotoxicity rating (0-100): 50
[24]; 500 g al/ha
  ABUTH phytotoxicity rating (0-100): 80
[25]; 125 g ai/ha
  crop damage rating RICE: 0
[25]; 500 g ai/ha
  crop damage rating RICE: 0
[26]; 125 g ai/ha
  crop damage rating CORN: 0
[26]; 500 g ai/ha
  crop damage rating CORN: 0
